Test results reported in ChEMBL document CHEMBL4725353, “Discovery of Pyrido[2,3-b]indole Derivatives with Gram-Negative Activity Targeting Both DNA Gyrase and Topoisomerase IV” (J Med Chem, 2020).
Converted amounts (≈) assume the structure as drawn.

Legend:
[1] = Distribution coefficient between octanol and buffer, log D of the compound in pH 7.4 buffer by CAMDIS assay; type: physicochemical
Escherichia coli [2] = assay: microbe, parasite or virus in culture; conditions: ATCC 29213
Description: Antibacterial activity against Escherichia coli ATCC 29213 assessed as reduction in microbial growth preincubated for 20 to 24 hrs followed by subculture in absence of compound and measured on day 4 CLSI based broth microdilution susceptibility method

Escherichia coli [3] = assay: microbe, parasite or virus in culture; conditions: ATCC 25922
Description: Antibacterial activity against Escherichia coli ATCC 25922 assessed as reduction in microbial growth preincubated for 20 to 24 hrs followed by subculture in absence of compound and measured on day 4 CLSI based broth microdilution susceptibility method

Acinetobacter baumannii [4] = assay: Antibacterial activity against Acinetobacter baumannii ATCC BAA-747 assessed as reduction in microbial growth preincubated for 20 to 24 hrs followed by subculture in absence of compound and measured on day 4 CLSI based broth microdilution susceptibility method; type: functional; conditions: time hrs 20-24
Klebsiella pneumoniae [5] = assay: Antibacterial activity against Klebsiella pneumoniae ATCC BAA-2146 assessed as reduction in microbial growth preincubated for 20 to 24 hrs followed by subculture in absence of compound and measured on day 4 CLSI based broth microdilution susceptibility method; type: functional; conditions: time hrs 20-24
in vitro = conditions: mouse, liver microsomes
Description: Intrinsic clearance in mouse liver microsomes preincubated for 10 mins followed by NADPH regenerating system addition and measured up to 30 mins by LC/MS-MS analysis

Escherichia coli [6] = assay: Antibacterial activity against Escherichia coli ATCC BAA-2340 assessed as reduction in microbial growth preincubated for 20 to 24 hrs followed by subculture in absence of compound and measured on day 4 CLSI based broth microdilution susceptibility method; type: functional; conditions: time hrs 20-24
Pseudomonas aeruginosa [7] = assay: Antibacterial activity against Pseudomonas aeruginosa ATCC BAA-2113 assessed as reduction in microbial growth preincubated for 20 to 24 hrs followed by subculture in absence of compound and measured on day 4 CLSI based broth microdilution susceptibility method; type: functional; conditions: time hrs 20-24
Pseudomonas aeruginosa [8] = assay: Antibacterial activity against Pseudomonas aeruginosa ATCC 27853 assessed as reduction in microbial growth preincubated for 20 to 24 hrs followed by subculture in absence of compound and measured on day 4 CLSI based broth microdilution susceptibility method; type: functional; conditions: time hrs 20-24
Klebsiella pneumoniae [9] = assay: Antibacterial activity against Klebsiella pneumoniae ATCC 700603 assessed as reduction in microbial growth preincubated for 20 to 24 hrs followed by subculture in absence of compound and measured on day 4 CLSI based broth microdilution susceptibility method; type: functional; conditions: time hrs 20-24
Pseudomonas aeruginosa [10] = assay: Antibacterial activity against Pseudomonas aeruginosa PAO1 assessed as reduction in microbial growth preincubated for 20 to 24 hrs followed by subculture in absence of compound and measured on day 4 CLSI based broth microdilution susceptibility method; type: functional; conditions: time hrs 20-24
Klebsiella pneumoniae [11] = assay: Antibacterial activity against Klebsiella pneumoniae ATCC 10031 assessed as reduction in microbial growth preincubated for 20 to 24 hrs followed by subculture in absence of compound and measured on day 4 CLSI based broth microdilution susceptibility method; type: functional; conditions: time hrs 20-24
Acinetobacter baumannii [12] = assay: Antibacterial activity against Acinetobacter baumannii ATCC 51432 assessed as reduction in microbial growth preincubated for 20 to 24 hrs followed by subculture in absence of compound and measured on day 4 CLSI based broth microdilution susceptibility method; type: functional; conditions: time hrs 20-24
Acinetobacter baumannii [13] = assay: Antibacterial activity against Acinetobacter baumannii ATCC 19606 assessed as reduction in microbial growth preincubated for 20 to 24 hrs followed by subculture in absence of compound and measured on day 4 CLSI based broth microdilution susceptibility method; type: functional; conditions: time hrs 20-24
Escherichia coli [14] = assay: Antibacterial activity against Escherichia coli ATCC 35218 assessed as reduction in microbial growth preincubated for 20 to 24 hrs followed by subculture in absence of compound and measured on day 4 CLSI based broth microdilution susceptibility method; type: functional; conditions: time hrs 20-24
physchem [15] = conditions: PBS, pH 6.5
Description: Solubility of compound in PBS at pH 6.5 incubated for over night by HPLC-UV based lyophilization solubility assay

physchem [16] = assay: physchem
Description: Ionization constant (acid), pKa of the compound by photometric titration assay

Row | logD [1] | MIC (Escherichia coli [2]) [µg/mL] | MIC (Escherichia coli [3]) [µg/mL] | MIC (Acinetobacter baumannii [4]) [µg/mL] | MIC (Klebsiella pneumoniae [5]) [µg/mL] | CLint scaled at 0.5 h (in vitro) [mL/min/kg] | MIC (Escherichia coli [6]) [µg/mL] | MIC (Pseudomonas aeruginosa [7]) [µg/mL] | MIC (Pseudomonas aeruginosa [8]) [µg/mL] | MIC (Klebsiella pneumoniae [9]) [µg/mL] | MIC (Pseudomonas aeruginosa [10]) [µg/mL] | MIC (Klebsiella pneumoniae [11]) [µg/mL] | MIC (Acinetobacter baumannii [12]) [µg/mL] | MIC (Acinetobacter baumannii [13]) [µg/mL] | MIC (Escherichia coli [14]) [µg/mL] | solubility (physchem [15]) [µg/mL] | pKa (physchem [16]) | Structure (SMILES)
1 | 3.1 | < 0.125 | 1 (≈ 2.01 µM) |  |  |  |  |  |  |  |  |  |  |  |  |  |  | CCNc1cc(F)cc2c1[nH]c1ncc(-c3cncc(CC(N)=O)c3)c(-n3ccc(C(F)(F)F)n3)c12
2 | 2.8 | 0.5 (≈ 0.953 µM) | 8 (≈ 15.3 µM) |  |  |  |  |  |  |  |  |  |  |  |  |  |  | CCNc1cc(F)cc2c1[nH]c1ncc(-c3cncc(N4CCNCC4)c3)c(-n3ccc(C(F)(F)F)n3)c12
3 | 3.48 | < 0.016 | 0.25 (≈ 0.566 µM) | 0.69 | 1.38 | 76.1 | 1.38 | 0.34 | 1.38 | 0.69 | 2 | 0.09 | 1.38 | 0.17 | 0.34 | < 0.2 |  | CCNc1cc(F)cc2c1[nH]c1ncc(-c3cncnc3)c(-n3ccc(C(F)(F)F)n3)c12
4 | 2.54 | < 0.125 | 1 (≈ 1.77 µM) |  |  |  |  |  |  |  |  |  |  |  |  |  |  | CCNc1cc(F)cc2c1[nH]c1ncc(-c3cnc4c(c3)c(=O)c(C(=O)O)cn4C)c(-n3ccc(C(F)(F)F)n3)c12
5 |  | 0.63 (≈ 1.23 µM) | 1 (≈ 1.95 µM) |  |  |  |  |  |  |  |  |  |  |  |  |  | 8.62 | CCNc1cc(F)cc2c1[nH]c1ncc(-c3cnc(OC4CNC4)nc3)c(-n3ccc(C(F)(F)F)n3)c12
6 | 3.54 | 0.31 (≈ 0.645 µM) | 0.25 (≈ 0.52 µM) | 0.75 | 1.5 |  | 0.75 | 0.75 | 1.5 | 0.75 | 2 | 0.38 | 1.5 | 0.38 | 0.75 |  |  | CCNc1cc(F)cc2c1[nH]c1ncc(-c3cnc4ccnn4c3)c(-n3ccc(C(F)(F)F)n3)c12
7 |  | 0.63 (≈ 1.17 µM) | 1 (≈ 1.85 µM) |  |  | 57.9 |  |  |  |  |  |  |  |  |  | 7.6 (≈ 14.1 µM) | 9.52 | CCNc1cc(F)cc2c1[nH]c1ncc(-c3cnc(NC4CCNCC4)nc3)c(-n3ccc(C(F)(F)F)n3)c12
8 |  | < 0.016 | 0.25 (≈ 0.531 µM) |  |  | 53.1 |  |  |  |  |  |  |  |  |  | < 1 |  | CCNc1cc(F)cc2c1[nH]c1ncc(-c3cnc(NC)nc3)c(-n3ccc(C(F)(F)F)n3)c12
9 |  | < 0.016 | 1 (≈ 2 µM) |  |  | 44 |  |  |  |  |  |  |  |  |  | 9 (≈ 18 µM) |  | CCNc1cc(F)cc2c1[nH]c1ncc(-c3cnc(CC(=O)O)nc3)c(-n3ccc(C(F)(F)F)n3)c12
10 |  | 0.125 (≈ 0.303 µM) | 8 (≈ 19.4 µM) |  |  |  |  |  |  |  |  |  |  |  |  |  | 2.02 | CCNc1cc(F)cc2c1[nH]c1ncc(-c3cncc(C#N)c3)c(-n3ccc(N)n3)c12
11 | 3.25 | < 0.016 | 0.5 (≈ 1.03 µM) | 3.02 | 3.02 |  | 0.76 | 0.76 | 0.76 | 0.76 | 2 | 0.09 | 3.02 | 0.76 | 0.76 |  |  | CCNc1cc(F)cc2c1[nH]c1ncc(-c3cncc(C(N)=O)c3)c(-n3ccc(C(F)(F)F)n3)c12
12 | 3.38 | < 0.056 | 0.73 (≈ 1.36 µM) |  |  |  |  |  |  |  |  |  |  |  |  |  |  | CCNc1cc(F)cc2c1[nH]c1ncc(-c3cncc(Cc4n[nH]c(=O)o4)c3)c(-n3ccc(C(F)(F)F)n3)c12
13 | 3.56 | < 0.016 | 0.5 (≈ 1.06 µM) | > 23.5 | > 23.5 |  | 1.47 | 1.47 | > 23.5 | 1.47 | 4 | 0.183 | > 23.5 | 73 | 1.47 |  |  | CCNc1cc(F)cc2c1[nH]c1ncc(-c3cncc(CO)c3)c(-n3ccc(C(F)(F)F)n3)c12
14 |  | < 0.016 | 0.375 (≈ 0.714 µM) |  |  | 43.8 |  |  |  |  |  |  |  |  |  | 67 (≈ 128 µM) |  | CCNc1cc(F)cc2c1[nH]c1ncc(-c3cnc(C4(C(=O)O)CC4)nc3)c(-n3ccc(C(F)(F)F)n3)c12
15 |  | < 0.016 | 1 (≈ 1.9 µM) |  |  | 24.2 |  |  |  |  |  |  |  |  |  | < 1 |  | CCNc1cc(F)cc2c1[nH]c1ncc(-c3cnc(N4CCOCC4)nc3)c(-n3ccc(C(F)(F)F)n3)c12
16 |  | 0.25 (≈ 0.476 µM) | 2 (≈ 3.81 µM) |  |  | 60.1 |  |  |  |  |  |  |  |  |  | 8.3 (≈ 15.8 µM) | 9.55 | CCNc1cc(F)cc2c1[nH]c1ncc(-c3cnc(NC4CCNC4)nc3)c(-n3ccc(C(F)(F)F)n3)c12 (stereo unspecified)
17 | 2.94 | < 0.25 | 1 (≈ 2.13 µM) |  |  |  |  |  |  |  |  |  |  |  |  |  | 8.62 | CCNc1cc(F)cc2c1[nH]c1ncc(-c3cncc(CN)c3)c(-n3ccc(C(F)(F)F)n3)c12
